Earlier results in patent US20140080710A1, “COMPOSITIONS WITH HOT MELT RESIN MATRIX” (AgroFresh Inc., priority 2012, published 2014).

System: ethylene receptor
Details: compared with ethylene

Structure (SMILES): CC1=CC1 [Sample 1-MCP, 1-methylcyclopropene]
- affinity for the receptor relative to that of ethylene: approximately 10 times
